pIC50, pKi: −log10 of the molar value. Where two headings read alike, the source gives them in different places. Values belong to the molecule of their own block, whether it stands above or below them.
Tests used:
[1] = biological target: T1, Human pancreatic cholesterol esterase (Homo sapiens, UniProt P19835); assay: Inhibition of human pancreatic cholesterol esterase, cholesteryl 14C-oleate hydrolysis; type: biochemical; conditions: for pIC50: read-out: IC50
T1 construct: Human pancreatic cholesterol esterase was purified as described by Bosner et al; from tissue; host or cells: human pancreas (purified to homogeneity)
T1 sequence (P19835 21-753): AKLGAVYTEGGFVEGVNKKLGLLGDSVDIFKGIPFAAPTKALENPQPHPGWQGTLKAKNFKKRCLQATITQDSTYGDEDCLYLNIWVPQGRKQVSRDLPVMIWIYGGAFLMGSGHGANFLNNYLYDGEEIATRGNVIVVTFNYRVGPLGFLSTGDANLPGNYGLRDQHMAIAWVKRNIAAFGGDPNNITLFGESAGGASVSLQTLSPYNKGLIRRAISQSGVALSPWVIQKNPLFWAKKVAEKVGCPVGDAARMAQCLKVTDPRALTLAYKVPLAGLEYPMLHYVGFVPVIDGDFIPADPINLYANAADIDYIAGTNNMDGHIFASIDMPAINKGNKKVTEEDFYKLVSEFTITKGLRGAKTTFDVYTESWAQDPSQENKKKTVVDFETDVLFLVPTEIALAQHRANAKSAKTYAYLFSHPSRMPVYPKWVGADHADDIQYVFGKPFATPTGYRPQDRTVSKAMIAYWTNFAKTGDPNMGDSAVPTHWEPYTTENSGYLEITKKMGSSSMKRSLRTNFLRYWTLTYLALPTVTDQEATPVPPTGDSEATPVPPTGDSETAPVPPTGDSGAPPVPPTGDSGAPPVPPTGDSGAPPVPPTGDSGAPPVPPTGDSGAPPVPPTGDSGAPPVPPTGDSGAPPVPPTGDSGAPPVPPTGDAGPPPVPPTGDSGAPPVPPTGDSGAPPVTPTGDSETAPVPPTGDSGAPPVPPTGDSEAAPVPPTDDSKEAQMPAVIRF

[2] = biological target: human 100 kDa cholesterol esterase; assay: Inhibition of triolein hydrolysis by human 100 kDa cholesterol esterase; type: biochemical; conditions: Table 3; triolein as substrate
Procedure: Alginic acid from Macrocystis pyrifera (kelp) was dissolved in water at a concentration of 1 mg/ml. This stock solution was used to prepare various polysaccharide concentrations down to 10^-5 mg/ml. Human pancreatic cholesterol esterase was purified as described by Bosner et al., Proc. Nat'l, Acad, Sci., 85, 7438 (1988). To measure cholesterol esterase inhibition by alginic acid, 50 μl of cholesterol esterase (10 μg/ml), 75 μl of phosphatidylcholine vesicles containing cholesteryl ^14 C-oleate (1 mM 2,000 CPM/nmole), 25 μl of 100 mM taurocholate, 120 μl of 150 mM Tris, pH 7.5 and 30 μl of test alginic acid solution were incubated at 37° C. for fifteen minutes. The assay was quenched by placing the reaction vessels in a 4° C. ice bath and by adding 0.6 ml of 0.3 N NaOH and 3 ml of benzene/chloroform/methanol (1.0/1.2/0.5). The quenched reactions were vortexed for 30 seconds, centrifuged at 3,000 g for 15 minutes and 1 ml of the upper aqueous phase was added to 7 ml of Aquasol-2 (DuPont) with 0.025 ml of 6 N HCl. These mixtures were vortexed for one minute and counted for ^14 C-oleate. The counts were compared to a sample which contained cholesterol esterase but no alginic acid to determine the percentage of inhibition.
(The same assay procedure was used as described in Part I, only triolein was used instead of cholesteryl oleate.) As shown in the table below, the IC50 for inhibition of triolein hydrolysis is nearly the same as that for cholesteryl oleate hydrolysis.

[3] = system: cholesterol esterase; assay: Inhibition of cholesterol oleate hydrolysis by pig pancreatic cholesterol esterase; type: biochemical; conditions: enzyme from pig pancreas
Text: (§1) These sulfated polysaccharides are also inhibitors of animal pancreatic cholesterol esterase.

[4] = biological target: cholesterol esterase; assay: Inhibition of cholesterol oleate hydrolysis by cow pancreatic cholesterol esterase; type: biochemical; conditions: enzyme from the cow
Text: as §1

[5] = Serum radiolabeled cholesterol in rabbit fed cellulose sulfate chow; type: in vivo, New Zealand White rabbit; conditions: chow with 0.5% cellulose sulfate
Text: A New Zealand White rabbit was maintained on regular rabbit chow. Two days before the experiment began the animal was fed chow to which cellulose sulfate had been added to give a final concentration of 0.5%. After 12 hrs. on regular chow then, the experiment began with the administration of ^14 C-cholesteryl oleate as described above. The animal was then allowed to eat and drink regular chow in a normal manner. Blood samples were withdrawn from an ear vein and the radiolabeled cholesterol measured by scintillation counting. […] In contrast, in the control animal, label appears only two hours after its administration.

[6] = system: cholesterol esterase; assay: Inhibition of cholesterol oleate hydrolysis by rabbit pancreatic cholesterol esterase; type: biochemical; conditions: enzyme from rabbit pancreas
Text: as §1

[7] = system: cholesterol esterase; assay: Inhibition of cholesterol oleate hydrolysis by rat pancreatic cholesterol esterase; type: biochemical; conditions: enzyme from rat pancreas
Text: as §1

[8] = In vivo cholesterol uptake in cholesteryl oleate fed rabbit, nasogastric dosing
Procedure: Inhibition of cholesterol uptake from either free cholesterol or from cholesteryl oleate was examined in vivo using cellulose sulfate. A rabbit which had been fed cholesteryl oleate for six weeks was fasted for twelve hours and a nasogastric cube was inserted into its stomach. Five ml of a cellulose sulfate solution (100 mg/ml) in Tris buffer were added followed by 10 ml of 20 uCi of ^3 H cholesterol incorporated in phosphatidylcholine vesicles and 10 ml of 20 uCi of ^14 C cholesteryl oleate. The nasogastric tube was then flushed with an additional 5 ml of cellulose sulfate solution (100 mg/ml). After the tube was removed, blood was drawn from an ear vein as a function of time and 100 μl of plasma was counted for ^14 C and ^3 H. As shown, cellulose sulfate inhibited by 85% the uptake of either free cholesterol or cholesterol derived from cholesteryl oleate (FIG. 5).

[9] = system: cholesterol esterase; assay: Stability under baking conditions: cholesterol esterase inhibition by muffin supernatant; conditions: retention of inhibitory activity
Procedure: The sulfated polysaccharides described here retain their inhibitory activity for prolonged periods at elevated temperatures. […] For example, 109 mg of cellulose sulfate were added to 198 gm (7 oz) of corn muffin mix (Gold Medal,) and the solid ingredients were thoroughly mixed together. After the addition of one egg and one third cup milk, the muffin mix was stirred fifteen times. The mixture was poured into nine muffin tins and baked for fifteen minutes in a 400° oven. The next day one muffin was broken up, added to 100 ml of water and allowed to stand for fifteen minutes. The mixture was centrifuged and the clear supernatant was assayed for the presence of cholesterol esterase inhibition. The IC50 of this solution was achieved when this solution was diluted 10^3 -10^4 times.

[10] = system: Colonic adenocarcinoma cells (CaCo-2); assay: Cholesterol esterase catalyzed cholesterol uptake by CaCo-2 cells; type: cell-based; conditions: CaCo-2, bovine 72 kDa cholesterol esterase
Procedure: Colonic adenocarcinoma cells (CaCo-2, American Type Culture Collection) were grown to a density of 2×10^6 cells on […] coverslips in Dulbecco's Moditied Eagle's Medium containing 10% (v/v) lipoprotein depleted serum. The coverslips were washed with phosphate buffered saline (PBS) and transferred to 35 mm wells containing 1.0 ml PBS, 2 mM taurocholate and 1% bovine serum albumin. The cells were then incubated at 37° C. with 0.01 uCi of ^3 H cholesterol and 0.01 uCi of ^14 C-cholesteryl oleate, which were embedded in phosphatidylcholine vesicles. The control wells received no cholesterol esterase while the experimental set received bovine 72 kDa cholesterol esterase. At various incubation times the coverslips were removed, washed three times with PBS, and the cells were collected by scraping and washing with 250 mM tris glycine buffer (pH 8.8) containing 0.1% SDS. The cells were collected by centrifugation and the pellet was heated at 100° C. for five minutes and then sonicated for ten minutes. The uptake of cholesterol, either from free sterol or from cholesteryl oleate, was determined by scintillation counting for ^3 H or ^14 C, respectively.

[11] = biological target: cholesterol esterase from rat; conditions: Borgstrom 1988; water soluble artificial and colorimetric substrates; cited from earlier work
[12] = biological target: 52 kDa human pancreatic triglyceride lipage; conditions: literature; cited from earlier work
[13] = system: cholesterol esterase; conditions: Bosner et al., 1988; cited from earlier work
[14] = Table 3, cholesteryl oleate as substrate, read-out: IC50 (nM) Cholesteryl Oleate
[15] = cholesteryl oleate hydrolysis, molar value based on assumed polymer molecular weight

Molecule: Chitin Sulfate
pIC50 ([1]; Table 2): 9.80
IC50 [1, 14]: 0.3 nM
pIC50 [1, 15]: 9.52
IC50 [2]: 0.35 nM

Molecule: CCCCCCCCCCC[C@@H](C[C@@H]1OC(=O)[C@H]1CCCCCC)OC(=O)[C@H](CC(C)C)NC=O [tetrahydrolipstatin]
pKi [11]: 4.00
pKi [12]: 7.00

Molecule: chondroitan sulfate
interaction with cholesterol esterase [13]: does not interact with cholesterol esterase

Molecule: Alginic acid [reference compound]
pIC50 ([1]; Table 1): 7.70
Enhancement Factor ([1]; Table 1, relative to alginic acid): 1.0
IC50 [1, 14]: 20 nM
IC50 ([1]; cholesteryl oleate hydrolysis): 4 µg/mL
pIC50 [1, 15]: 7.70
IC50 [2]: 42 nM

Molecule: pectin [native, unsulfated pectin, reference compound]
inhibition of cholesterol esterase (in words) ([1]; hydrolysis of cholesterol esters): does not inhibit cholesterol esterase

Now from value to molecule, other results behind:

pIC50 ([1]; Table 2): 9.80
IC50 [1, 14]: 0.3 nM
pIC50 [1, 15]: 9.52
IC50 [2]: 0.85 nM
Molecule: Chitosan Sulfate

inhibition of cholesterol oleate hydrolysis [3]: inhibits
pKi [4]: 7.00
inhibition of cholesterol oleate hydrolysis [6]: inhibits
inhibition of cholesterol oleate hydrolysis [7]: inhibits
pIC50 ([1]; Table 2): 10.70
IC50 [1, 14]: 0.02 nM
pIC50 [1, 15]: 10.70
IC50 [2]: 0.06 nM
stability at elevated temperatures / baking conditions [9]: stable under baking conditions
Molecule: Cellulose Sulfate
time until cholesterol appears in serum after administration of the label [5]: four
reduction of level of serum cholesterol compared to control rabbit ([5]; 14C-cholesteryl oleate label, FIG. 7): 50%
inhibition of uptake of free cholesterol ([8]; rabbit, nasogastric cellulose sulfate 100 mg/ml, 3H cholesterol in plasma, FIG. 5): 85%
inhibition of uptake of cholesterol derived from cholesteryl oleate ([8]; rabbit, nasogastric cellulose sulfate 100 mg/ml, 14C in plasma, FIG. 5): 85%
absorption of free cholesterol ([8]; rabbits): decreases absorption of free cholesterol
decrease of cholesterol absorption ([8]; rabbits fed cholesterol oleate): over 70%
uptake of cholesterol derived from cholesteryl oleate by the cells ([10]; FIG. 4a): markedly inhibits cholesterol uptake
uptake of free cholesterol by the cells ([10]; FIG. 4b): markedly inhibits cholesterol uptake

Reference: patent publication US5616570A, “Use of non-absorbable synthetic sulfated polysaccharides to decrease cholesterol absorbtion” (priority 1994, dated 1997)
